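Test compounds were applied to cells in 96-well plates for 48 hours at 5 doses. TGI is the concentration that stops growth completely.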
Assays:
Assay in all cases: NCI anticancer screen, dose series, 48 h
MCF7 breast = tested on: MCF7 breast
NCI-H226 lung = tested on: NCI-H226 lung
PC-3 prostate = tested on: PC-3 prostate
MDA-MB-435 = tested on: MDA-MB-435
HOP-92 NSCLC = tested on: HOP-92 NSCLC
MDA-N = tested on: MDA-N
HCT-15 colon = tested on: HCT-15 colon
UACC-62 melanoma = tested on: UACC-62 melanoma
OVCAR-4 ovarian = tested on: OVCAR-4 ovarian
SF-295 CNS = tested on: SF-295 CNS
K-562 leukemia = tested on: K-562 leukemia
HCC-2998 colon = tested on: HCC-2998 colon
SK-MEL-2 melanoma = tested on: SK-MEL-2 melanoma
SN12C renal = tested on: SN12C renal
IGROV1 ovarian = tested on: IGROV1 ovarian
HT29 colon = tested on: HT29 colon
MDA-MB-231 breast = tested on: MDA-MB-231 breast
NCI-H23 lung = tested on: NCI-H23 lung
TK-10 renal = tested on: TK-10 renal
COLO 205 colon = tested on: COLO 205 colon
SW-620 colon = tested on: SW-620 colon
UACC-257 melanoma = tested on: UACC-257 melanoma
DU-145 prostate = tested on: DU-145 prostate
CCRF-CEM leukemia = tested on: CCRF-CEM leukemia
A498 renal = tested on: A498 renal
RPMI-8226 leukemia = tested on: RPMI-8226 leukemia
SNB-19 CNS = tested on: SNB-19 CNS
NCI-H460 lung = tested on: NCI-H460 lung
HOP-62 NSCLC = tested on: HOP-62 NSCLC
A549 NSCLC = tested on: A549 NSCLC
KM12 colon = tested on: KM12 colon
SR leukemia = tested on: SR leukemia
MALME-3M melanoma = tested on: MALME-3M melanoma
RXF 393 renal = tested on: RXF 393 renal
U251 CNS = tested on: U251 CNS
786-0 renal = tested on: 786-0 renal
SK-MEL-28 melanoma = tested on: SK-MEL-28 melanoma
OVCAR-5 ovarian = tested on: OVCAR-5 ovarian
SK-OV-3 ovarian = tested on: SK-OV-3 ovarian
CAKI-1 renal = tested on: CAKI-1 renal
M14 melanoma = tested on: M14 melanoma
NCI/ADR-RES ovarian = tested on: NCI/ADR-RES ovarian
LOX IMVI melanoma = tested on: LOX IMVI melanoma
SNB-75 CNS = tested on: SNB-75 CNS
HCT-116 colon = tested on: HCT-116 colon
SF-268 CNS = tested on: SF-268 CNS
T-47D breast = tested on: T-47D breast
BT-549 breast = tested on: BT-549 breast
MOLT-4 leukemia = tested on: MOLT-4 leukemia
NCI-H522 lung = tested on: NCI-H522 lung
HS 578T breast = tested on: HS 578T breast
SF-539 CNS = tested on: SF-539 CNS
OVCAR-8 ovarian = tested on: OVCAR-8 ovarian
ACHN renal = tested on: ACHN renal
EKVX NSCLC = tested on: EKVX NSCLC
UO-31 renal = tested on: UO-31 renal
SK-MEL-5 melanoma = tested on: SK-MEL-5 melanoma

With CCOC(=O)/C=C/C1OC(C)(C)OC1/C=C/C(=O)OCC (configuration not stated) the TGI (MCF7 breast) was greater than 100 µM, the TGI (NCI-H226 lung) was greater than 100 µM and the TGI (PC-3 prostate) was greater than 100 µM. The TGI (MDA-MB-435) was greater than 100 µM, the TGI (HOP-92 NSCLC) was 41.8 µM and the TGI (MDA-N) was greater than 100 µM. For the same compound, the TGI (HCT-15 colon) was 64.2 µM, the TGI (UACC-62 melanoma) was greater than 100 µM and the TGI (OVCAR-4 ovarian) was greater than 100 µM. For the same compound, the TGI (SF-295 CNS) was greater than 100 µM, the TGI (K-562 leukemia) was 48.4 µM and the TGI (HCC-2998 colon) was 47.4 µM. The TGI (SK-MEL-2 melanoma) was greater than 100 µM, the TGI (SN12C renal) was greater than 100 µM and the TGI (IGROV1 ovarian) was greater than 100 µM. It also gave a TGI (HT29 colon) of 57.6 µM, a TGI (MDA-MB-231 breast) greater than 100 µM and a TGI (NCI-H23 lung) greater than 100 µM. For the same compound, the TGI (TK-10 renal) was greater than 100 µM, the TGI (COLO 205 colon) was greater than 100 µM and the TGI (SW-620 colon) was 49.2 µM. For the same compound, the TGI (UACC-257 melanoma) was greater than 100 µM, the TGI (DU-145 prostate) was greater than 100 µM and the TGI (CCRF-CEM leukemia) was 57.7 µM. The TGI (A498 renal) was greater than 100 µM, the TGI (RPMI-8226 leukemia) was 47.7 µM and the TGI (SNB-19 CNS) was greater than 100 µM. It also gave a TGI (NCI-H460 lung) of 48.9 µM, a TGI (HOP-62 NSCLC) greater than 100 µM and a TGI (A549 NSCLC) greater than 100 µM. For the same compound, the TGI (KM12 colon) was 70.7 µM, the TGI (SR leukemia) was 43.3 µM and the TGI (MALME-3M melanoma) was greater than 100 µM. The TGI (RXF 393 renal) was greater than 100 µM, the TGI (U251 CNS) was greater than 100 µM and the TGI (786-0 renal) was greater than 100 µM. It also gave a TGI (SK-MEL-28 melanoma) of 87.7 µM, a TGI (OVCAR-5 ovarian) greater than 100 µM and a TGI (SK-OV-3 ovarian) greater than 100 µM. The TGI (CAKI-1 renal) was 54.7 µM, the TGI (M14 melanoma) was greater than 100 µM and the TGI (NCI/ADR-RES ovarian) was greater than 100 µM. For the same compound, the TGI (LOX IMVI melanoma) was greater than 100 µM, the TGI (SNB-75 CNS) was greater than 100 µM and the TGI (HCT-116 colon) was greater than 100 µM. The TGI (SF-268 CNS) was greater than 100 µM, the TGI (T-47D breast) was greater than 100 µM and the TGI (BT-549 breast) was greater than 100 µM. The TGI (MOLT-4 leukemia) was 63.3 µM, the TGI (NCI-H522 lung) was 51.1 µM and the TGI (HS 578T breast) was greater than 100 µM. For the same compound, the TGI (SF-539 CNS) was greater than 100 µM, the TGI (OVCAR-8 ovarian) was 82.7 µM and the TGI (ACHN renal) was greater than 100 µM. It also gave a TGI (EKVX NSCLC) of 94.9 µM, a TGI (UO-31 renal) greater than 100 µM and a TGI (SK-MEL-5 melanoma) greater than 100 µM.
